The target of data set [1] is T1, JNK1 (Homo sapiens, UniProt P45983).
T1 construct: purchased Reaction Biology Corp
Conditions: previous hit, Figure 2; cited from earlier work.

The next data set has as its system JNK3. The settings on record: previous hit and lead, Figure 2; cited from earlier work.
The subject of a further data set is c-jun. The data set can be described thus: Amyloid-β-induced JNK activation (c-jun phosphorylation) in neurons. Conditions: rat primary cortical neurons. Format: cell-based. An excerpt: (§1) To establish whether the derived selective JNK3 inhibitor actually has the ability to protect neurons from amyloid β-induced neuronal cell death, which is known as the pathogenesis of Alzheimer’s disease, we performed cytotoxicity experiments using Aβ 42, which is known as the most toxic fragment of the amyloid protein. The amyloid-β is known to mainly cause apoptosis during cell death, so it was confirmed whether the derived selective JNK3 inhibitors affect the activation (cleavage) of caspase-3, which are apoptosis-related signaling substances. […] This means that selective JNK3 inhibitors can inhibit apoptosis signaling by amyloid-β in neurons, thereby inhibiting apoptosis. Additionally, we confirmed that JNK activation was induced by amyloid-β in neurons, and the derived selective JNK3 inhibitors could inhibit JNK activation induced by amyloid-β. […] Then, the experiments for JNK3 inhibitors’ effect on the viability of neurons were conducted for five 6-dihydroxy benzimidazoles (35a-35e) by comparing it with previously published resveratrol as a positive control. On the 5th day of rat primary cortical neuron differentiation, each compound was pre-treated for 90 min and then treated with 10 μM Aβ 42 (HIFP-treated) for 24 or 48 h, and cell viability was measured by MTT assay. […]

In the next data set the target is T2, JNK3(h) (Homo sapiens, UniProt P53779).
T2 construct: purchased Reaction Biology Corp
T2 sequence (P53779 whole entry): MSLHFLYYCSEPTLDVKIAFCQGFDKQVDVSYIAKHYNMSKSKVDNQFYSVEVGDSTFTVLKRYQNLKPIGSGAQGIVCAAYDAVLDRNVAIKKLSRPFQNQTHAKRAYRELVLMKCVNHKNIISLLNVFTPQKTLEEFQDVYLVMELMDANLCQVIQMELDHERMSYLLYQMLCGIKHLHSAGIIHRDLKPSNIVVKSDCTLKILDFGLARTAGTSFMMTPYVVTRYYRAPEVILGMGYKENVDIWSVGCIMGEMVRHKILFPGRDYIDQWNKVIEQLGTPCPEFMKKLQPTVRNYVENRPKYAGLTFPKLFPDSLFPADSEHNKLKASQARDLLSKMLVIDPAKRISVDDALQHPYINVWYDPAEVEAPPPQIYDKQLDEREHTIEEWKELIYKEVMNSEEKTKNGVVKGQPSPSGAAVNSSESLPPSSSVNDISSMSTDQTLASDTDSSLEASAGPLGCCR
The data set can be described thus: Kinase HotSpot radiometric assay, JNK3. The settings on record: ATP 10 μM, substrate ATF2 5 μM; read-out: JNK3 inhibitory activity IC50. Format: biochemical.

The target in data set [2] is T1, JNK1. The data set can be described thus: Kinase HotSpot assay, JNK1. Format: biochemical.
The test system of a further data set is caspase-3. The data set can be described thus: Western blot of amyloid-β-induced caspase-3 activation (cleavage) in neurons. Format: cell-based, rat. Conditions: pre-treated 90 minutes, 10 μM amyloid-β1-42 24 hours.
Excerpt: as §1

Data set [3] relates to primary rat cortical neuron. The data set can be described thus: Cell viability (MTT) from Aβ-induced neurotoxicity. Format: cell-based. Conditions: pre-treated 90 min, then 10 μM Aβ42, MTT, normalized to vehicle control (DMSO); compound concentration not given. From the text: To establish whether the derived selective JNK3 inhibitor actually has the ability to protect neurons from amyloid β-induced neuronal cell death, which is known as the pathogenesis of Alzheimer’s disease, we performed cytotoxicity experiments using Aβ 42, which is known as the most toxic fragment of the amyloid protein. The amyloid-β is known to mainly cause apoptosis during cell death, so it was confirmed whether the derived selective JNK3 inhibitors affect the activation (cleavage) of caspase-3, which are apoptosis-related signaling substances. […] This means that selective JNK3 inhibitors can inhibit apoptosis signaling by amyloid-β in neurons, thereby inhibiting apoptosis. Additionally, we confirmed that JNK activation was induced by amyloid-β in neurons, and the derived selective JNK3 inhibitors could inhibit JNK activation induced by amyloid-β. […] Then, the experiments for JNK3 inhibitors’ effect on the viability of neurons were conducted for five 6-dihydroxy benzimidazoles (35a-35e) by comparing it with previously published resveratrol as a positive control. On the 5th day of rat primary cortical neuron differentiation, each compound was pre-treated for 90 min and then treated with 10 μM Aβ 42 (HIFP-treated) for 24 or 48 h, and cell viability was measured by MTT assay.
In initial experiments, rat hippocampal cells grown in serum-free neurobasal media containing B27 supplements at day 6 were treated with different concentrations of Aβ1–42 or Aβ1–40 for 24 h and then the cell viability was measured by colorimetric MTT assay. Aggregated Aβ1–42 and Aβ1–40 caused up to 40–60% cell death at concentrations ranging from […]. […] Resveratrol was active against various amyloid-related peptides including Aβ1–42, the most neurotoxic amyloid derivative present in the AD brain. […] Primary Rat Cortex Neurons, Sprague Dawley (Gibco, A36512, Fisher Scientific, Göteborg, Sweden), were cultured in Neurobasal™ Plus culture medium (Gibco, A3582901 Fisher Scientific, Göteborg, Sweden), supplemented with B-27™ Supplement (Gibco, A3582801 Fisher Scientific, Göteborg, Sweden) and 0.5 mM GlutaMAX™ Supplement (Gibco, 35050061 Fisher Scientific, Göteborg, Sweden) at 37 °C in a humidified 5% CO2 atmosphere. We plated –2 × 10^5 live cells per well in a poly-D-lysine/laminin coated 24-well plate. For neural differentiation, half of the medium was replaced with fresh complete medium every third day. On day 6, we removed half the volume of media from the culture plate, added an equal amount of complete culture media containing test compounds or vehicle to each well, and incubated them for 90 min at 37 °C and 5% CO2. Immediately prior to use, amyloid β-Protein (1–42) (HFIP-treated) (Bachem, 4090148.0100) was dissolved in 1% NH4OH, further diluted with culture medium, and added into the plates to a final concentration of 10 μM. Cells were incubated for 24 h with vehicle control or test compounds in the presence or absence of Aβ42. Cell viability was measured using the MTT [3-(4, 5-dimethylthiazol-2-yl)-2,5-diphenyltetrazolium bromide] assay. MTT solution was added into each well at a final concentration of 0.5 mg/mL, and cells were incubated at 37 °C for 4 h. The absorbance was detected at 540 nm (reference 650 nm) with a microplate reader. All results were normalized to OD values measured from the vehicle control (DMSO). […]
Primary Rat Cortex Neurons, Sprague Dawley (Gibco, A36512) were cultured in Neurobasal™ Plus culture medium (Gibco, A3582901), supplemented with B-27™ Supplement (Gibco, A3582801) and 0.5mM GlutaMAX™ Supplement (Gibco, 35050061) at 37 °C in a humidified 5% CO2 atmosphere. Plate ~2 × 10^5 live cells per well in a poly-D-lysine/laminin coated 24-well plate. For neural differentiation, half of the medium was replaced with fresh complete medium every third day. On day 6, remove half the volume of media from the culture plate and add an equal amount of complete culture media […]

The target in the next data set is T3, JNK2 (Homo sapiens, UniProt P45984).
T3 construct: purchased Reaction Biology Corp
T3 sequence (P45984 whole entry): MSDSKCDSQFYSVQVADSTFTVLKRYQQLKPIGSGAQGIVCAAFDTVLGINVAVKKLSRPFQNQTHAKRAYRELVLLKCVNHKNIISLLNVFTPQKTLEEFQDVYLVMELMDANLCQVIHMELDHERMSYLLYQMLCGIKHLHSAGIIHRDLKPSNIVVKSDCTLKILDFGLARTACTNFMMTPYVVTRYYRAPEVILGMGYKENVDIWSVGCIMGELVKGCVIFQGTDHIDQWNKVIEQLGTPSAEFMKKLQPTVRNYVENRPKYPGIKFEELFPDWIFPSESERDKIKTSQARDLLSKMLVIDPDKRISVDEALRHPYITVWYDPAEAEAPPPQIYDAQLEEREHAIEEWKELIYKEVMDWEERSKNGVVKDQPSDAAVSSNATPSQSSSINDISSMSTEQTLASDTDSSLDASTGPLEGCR
The data set can be described thus: Kinase HotSpot assay, JNK2. Format: biochemical.

Results on two compounds are retold here after PMC8539420, “Discovery of a Potent and Selective JNK3 Inhibitor with Neuroprotective Effect Against Amyloid β-Induced Neurotoxicity in Primary Rat Neurons” (International Journal of Molecular Sciences, 2021).

Where two headings read alike, the source gives them in different places.

As usually defined, the IC50 is the point on the concentration scale where inhibition reaches its midpoint.

T1 sequence (P45983 whole entry): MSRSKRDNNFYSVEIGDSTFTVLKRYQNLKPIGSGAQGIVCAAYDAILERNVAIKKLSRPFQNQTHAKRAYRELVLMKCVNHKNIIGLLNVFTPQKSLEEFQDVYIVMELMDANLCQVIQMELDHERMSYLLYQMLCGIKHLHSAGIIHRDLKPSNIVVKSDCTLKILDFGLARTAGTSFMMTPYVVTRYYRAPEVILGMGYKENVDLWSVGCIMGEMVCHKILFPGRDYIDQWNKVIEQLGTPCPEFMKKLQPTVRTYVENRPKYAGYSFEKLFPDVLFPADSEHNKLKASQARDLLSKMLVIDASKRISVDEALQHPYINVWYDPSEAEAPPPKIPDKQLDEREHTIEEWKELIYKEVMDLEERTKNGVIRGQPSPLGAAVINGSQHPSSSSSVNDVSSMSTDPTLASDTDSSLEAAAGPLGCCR

In the case of `Oc1cccc(-c2nc3ccccc3n2-c2ccnc(N[C@@H]3CCCNC3)c2)c1` [Hit], the IC50 at JNK1 [1] is greater than 10 µM; in the data set with JNK3, 1.86 µM.

Turning to `O=C(C1CC1)N1CCC[C@H](Nc2nccc(-n3c(-c4ccc5ccccc5c4)nc4cc(O)c(O)cc43)n2)C1` [35a], the “phosphorylation of c-jun induced by amyloid-β” value in the data set on c-jun is reported as “inhibit phosphorylation of c-jun”. Further, the values for the 50% inhibitory concentration (IC50) on JNK3(h), at JNK1 [2] and on JNK2 were 0.0199 µM, 2.43 µM and 0.266 µM, respectively. In the data set on caspase-3, the “activation (cleavage) of caspase-3 by amyloid-β” value was “inhibited the activation of caspase-3”. Besides, the “Cell viability, Mean” value in data set [3] was determined as 88.9 ± 3.8%.
